Structures can show the parent of a compound that is named as a salt. Where two headings read alike, the source gives them in different places.
Assays:
[1] = test system: primary cortico-hippocampal neuron cultures; test: lactate dehydrogenase (LDH) activity assay in parallel neuron cultures
Experimental: For in vitro treatments drugs available from “The Spectrum Collection” in stocks of 10 mM in DMSO were applied directly to cultures to the desired concentrations (final 1% DMSO); control primary neuron cultures from Tg2576 embryos were treated with vehicle resulting in a final 1% DMSO.
Cell viability was assessed using a commercial available LDH assay kit according to the manufacture's instruction (Promega).

Aβ1-40 = Aβ1-40 content in conditioned medium of primary cortico-hippocampal neuron cultures from Tg2576 mice (ELISA; primary and secondary dose-response screening); format: cell-based, mouse; settings: for reduced Aβ1-40: <85% of ctl; for activity at 100 µM: Mus musculus, Neuron, 24 h, read-out: Ab1-40 (% of ctl); for activity at 100 µM / Ab1-40 (% of ctl): drug 100 μM
Experimental: (§1) Potential Aβ-lowering activity was assessed for 150 commercially available cardiovascular drugs using primary cortico-hippocampal neuron cultures derived from embryonic Tg2576 (El 6). […] All cardiovascular reagents were obtained from MicroSource Discovery Systems Inc (Gaylordsville, Conn.). […] Individual cardiovascular agents were applied directly to the culture medium (final 1% DMSO in the culture media). In control studies, parallel Tg2576 primary neuron cultures were treated with vehicle (1% DMSO) alone. The influence of drug treatments in Aβ content in the conditioned medium in treated cultures was assessed by assessing steady state levels of Aβ1-40 and Aβ1-42 in the culture media 24 hours after treatment.
(§2) Embryonic brain tissue was mechanically triturated and centrifuged. Neurons were seeded onto poly-D-lysine-coated 96-well plates at 1.0×10^5 cells per well and cultured in the serum-free chemically-defined medium Neurobasal, supplemented with 2% B27, 0.5 mM L-glutamine and 1% penicillin-streptomycin (Gibco-BRL).
(§3) For primary screening, cultured neurons were treated with 100 μM of drug in duplicates for 16 hours; all drugs were obtained in stock from MicroSource Discovery Systems Inc (Gaylordsville, Conn.). Conditioned medium was collected for Aβ detection using commercially available ELISA kits (BioSource). […] Primary neurons prepared in 96-well plates were treated with 0.1 μM, 1 μM, 10 μM, 50 μM, and 100 μM of each drug in duplicate for ˜16 hours and conditioned medium was collected for Aβ detection.

[2] = test system: primary cortico-hippocampal neuron cultures; test: MTT in primary screening
Aβ1-42 = Aβ1-42 content in conditioned medium of primary cortico-hippocampal neuron cultures from Tg2576 mice (ELISA; primary and secondary dose-response screening); format: cell-based, mouse; settings: for reducing Aβ1-42: <85% of ctl; for activity at 100 µM: Mus musculus, Neuron, 24 h, read-out: Ab1-42 (% of ctl); for activity at 100 µM / Ab1-42 (% of ctl): drug 100 μM
Experimental: as §1, §2, §3

[3] = Primary Screening, table sorted by Aβ1-40
[4] = primary screening, table sorted by Aβ1-42
[5] = primary screening, Tg2576 neuron cultures, table sorted by Aβ1-42

Row | Compound | LDH (% of ctl) [1, 3] | LDH (% of ctl) [1, 4] | reduced Aβ1-40 (Aβ1-40; primary screening) | MTT (% of ctl) [2, 3] | MTT (% of ctl) [2, 4] | reducing Aβ1-42 (Aβ1-42; primary screening) | activity at 100 µM (Aβ1-40; [3]) [%] | activity at 100 µM (Aβ1-40; [5]) [%] | activity at 100 µM (Aβ1-42; [3]) [%] | activity at 100 µM (Aβ1-42; [5]) [%] | Ab1-40 (% of ctl) (Aβ1-40; [3]) | Ab1-40 (% of ctl) (Aβ1-40; [5]) | Ab1-42 (% of ctl) (Aβ1-42; [3]) | Ab1-42 (% of ctl) (Aβ1-42; [5])
1 | O=[N+]([O-])O[C@H]1CO[C@H]2[C@@H]1OC[C@H]2O[N+](=O)[O-] [Isosorbide Dinitrate] | 124.6 % of ctl | 124.6 % of ctl | reduced Aβ1-40 | 100.8 % of ctl | 100.8 % of ctl | useful in reducing Aβ1-42 |  |  |  |  |  |  |  | 
2 | CCCC(=O)Nc1ncnc2c1ncn2[C@@H]1O[C@@H]2COP(=O)(O)O[C@H]2[C@H]1OC(=O)CCC [Bucladesine] | 357.1 % of ctl | 357.1 % of ctl |  | 97.2 % of ctl | 97.2 % of ctl | useful in reducing Aβ1-42 | 85.3 | 85.3 | 69.9 | 69.9 |  |  |  | 
3 | Cn1cnc2c1c(=O)[nH]c(=O)n2C [Theobromine] | 118.3 % of ctl | 118.3 % of ctl |  | 97.2 % of ctl | 97.2 % of ctl |  | 101 | 101 | 117 | 117 |  |  |  | 
4 | CCOc1ccccc1OCCN[C@H](C)Cc1ccc(OC)c(S(N)(=O)=O)c1.Cl [Tamsulosin Hydrchloride] | 102.2 % of ctl | 102.2 % of ctl |  | 96.1 % of ctl | 96.1 % of ctl |  |  |  |  |  | 106.5 % of ctl | 106.5 % of ctl | 91.8 % of ctl | 91.8 % of ctl
5 | COc1ccc(OC)c(C(O)CNC(=O)CN)c1 (stereo not shown) [Midodrine Hydrochloride] | 105.6 % of ctl | 105.6 % of ctl |  | 87.8 % of ctl | 87.8 % of ctl | useful in reducing Aβ1-42 | 86 | 86 | 76.7 | 76.7 |  |  |  | 
6 | CC(C)OC(=O)C(C)(C)Oc1ccc(C(=O)c2ccc(Cl)cc2)cc1 [Fenofibrate] | 140.0 % of ctl | 140.0 % of ctl |  | 97.5 % of ctl | 97.5 % of ctl |  | 13.9 | 13.9 | 77.7 | 77.7 |  |  |  | 
7 | Cc1ccccc1N1C(=O)c2cc(S(N)(=O)=O)c(Cl)cc2NC1C (stereo not shown) [Metolazone] | 103.7 % of ctl | 103.7 % of ctl |  | 69.7 % of ctl | 69.7 % of ctl |  | 104 | 104 | 98 | 98 |  |  |  | 
8 | Nc1nc(N)c2nc(-c3ccccc3)c(N)nc2n1 [Triamterene] | 103.3 % of ctl | 103.3 % of ctl |  | 93.8 % of ctl | 93.8 % of ctl | useful in reducing Aβ1-42 | 85.1 | 85.1 | 64.2 | 64.2 |  |  |  | 
9 | CCCC(=O)Nc1ccc(OCC(O)CNC(C)C)c(C(C)=O)c1 (stereo not shown) [Acebutolol Hydrochloride] | 107.6 % of ctl | 107.6 % of ctl |  | 99.4 % of ctl | 99.4 % of ctl |  | 134 | 134 | 165 | 165 |  |  |  | 
10 | O=C(O)C(O)C(O)C(=O)O.OCc1cccnc1 (stereo not shown) [Nicotinyl Tartrate] | 122.6 % of ctl | 122.6 % of ctl | reduced Aβ1-40 | 92.7 % of ctl | 92.7 % of ctl | useful in reducing Aβ1-42 |  |  |  |  | 80.0 % of ctl | 80.0 % of ctl | 73.8 % of ctl | 73.8 % of ctl
11 | CC(C)COCC(CN(Cc1ccccc1)c1ccccc1)N1CCCC1 (stereo not shown) [Bepridil Hydrochloride] | 1885.2 % of ctl | 1885.2 % of ctl | reduced Aβ1-40 | 77.1 % of ctl | 77.1 % of ctl | useful in reducing Aβ1-42 | 5.1 | 5.1 | 19.9 | 19.9 |  |  |  | 
12 | C[C@]12CCC(=O)C=C1C=C[C@@H]1[C@@H]2CC[C@@]2(C)[C@H]1CC[C@@]2(O)CCC(=O)O [Canrenoic Acid, Potassium Salt] | 106.9 % of ctl | 106.9 % of ctl |  | 102.1 % of ctl | 102.1 % of ctl |  | 101 | 101 | 106 | 106 |  |  |  | 
13 | Nc1cc(N2CCCCC2)nc(N)[n+]1[O-] [Minoxidil] | 117.1 % of ctl | 117.1 % of ctl |  | 98.5 % of ctl | 98.5 % of ctl |  | 94.2 | 94.2 | 98.9 | 98.9 |  |  |  | 
14 | CNC1(C)C2CCC(C2)C1(C)C (stereo not shown) [Mecamylamine Hydrochloride] | 97.0 % of ctl | 97.0 % of ctl |  | 114.9 % of ctl | 114.9 % of ctl |  | 124 | 124 | 130 | 130 |  |  |  | 
15 | CCOC(=O)[C@H](CCc1ccccc1)N[C@H]1CCc2ccccc2N(CC(=O)O)C1=O [Benazepril Hydrochloride] | 103.5 % of ctl | 103.5 % of ctl |  | 99.5 % of ctl | 99.5 % of ctl |  | 116 | 116 | 115 | 115 |  |  |  | 
16 | Phenylbutyrate Sodium | 192.3 % of ctl | 192.3 % of ctl |  | 70.2 % of ctl | 70.2 % of ctl |  |  |  |  |  | 102.1 % of ctl | 102.1 % of ctl | 86.6 % of ctl | 86.6 % of ctl
17 | C#CCN(C)Cc1ccccc1 [Pargyline Hydrochloride] | 116.9 % of ctl | 116.9 % of ctl | reduced Aβ1-40 | 86.4 % of ctl | 86.4 % of ctl |  | 78.6 | 78.6 | 106 | 106 |  |  |  | 
18 | CC(CCc1ccccc1)NC(C)C(O)c1ccc(O)cc1 (stereo not shown) [Nylidrin Hydrochloride] | 115.6 % of ctl | 115.6 % of ctl | reduced Aβ1-40 | 79.7 % of ctl | 79.7 % of ctl |  | 70.5 | 70.5 | 90.4 | 90.4 |  |  |  | 

Reference: patent US20100029654A1, “CARDIOVASCULAR COMPOSITIONS AND USE OF THE SAME FOR THE TREATMENT OF ALZHEIMER'S DISEASE” (MOUNT SINAI SCHOOL OF MEDICINE, priority 2006, published 2010)
